This is an account of results in patent publication US20110313156A1 (BOEHRINGER INGELHEIM INTERNATIONAL GMBH, priority 2008, published 2011).

The structures appear in SMILES notation.

The target of the assay is T1, His6-PDK1 (aa 52-556) (Homo sapiens, UniProt O15530).
T1 construct: 15 μL His6-PDK1 (aa 52-556) 3.33 ng/well); host or cells: baculovirus-infected insect cells
T1 sequence (O15530 52-556): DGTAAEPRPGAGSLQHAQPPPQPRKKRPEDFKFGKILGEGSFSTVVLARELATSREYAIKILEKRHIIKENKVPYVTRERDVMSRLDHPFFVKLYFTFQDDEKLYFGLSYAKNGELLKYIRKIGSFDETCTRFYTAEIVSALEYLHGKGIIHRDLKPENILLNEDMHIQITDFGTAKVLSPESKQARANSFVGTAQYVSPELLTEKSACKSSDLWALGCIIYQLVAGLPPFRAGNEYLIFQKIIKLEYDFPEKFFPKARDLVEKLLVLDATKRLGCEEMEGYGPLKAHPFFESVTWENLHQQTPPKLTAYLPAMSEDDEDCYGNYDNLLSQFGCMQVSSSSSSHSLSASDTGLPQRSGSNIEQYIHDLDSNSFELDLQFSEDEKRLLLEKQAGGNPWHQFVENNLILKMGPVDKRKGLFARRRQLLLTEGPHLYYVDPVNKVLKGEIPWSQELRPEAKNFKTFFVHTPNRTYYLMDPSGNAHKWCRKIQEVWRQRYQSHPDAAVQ
Nature of the assay: PDK1 kinase assay III (with Tween 20). The class given is biochemical. The conditions noted are these: compound at 10 μM; PDK1 kinase assay III (values without asterisk); read-out: % CTL (residual activity of the enzyme relative to DMSO control). The protocol: Purified enzyme may be obtained for example from the University of Dundee, Scotland.
Another PDK1 assay was developed which by comparison with PDK1 assay 1 additionally contains Tween 20:
The final concentration of Tween 20 is 0.005%.
The reaction is started by adding the ATP solution and the mixture is incubated for 90 min at ambient temperature; at the start of the reaction the dishes are shaken gently. The reaction is stopped by the addition of 50 μL/well of 500 mM phosphoric acid (H3PO4) and incubated for about 20 min at ambient temperature. […] The measured data are evaluated using Graphpad Prism software.
The % CTL values indicate the residual activity of the enzyme after the addition of the inhibitory compound in the solvent DMSO in relation to the enzyme activity in the solvent DMSO without the addition of a compound (control). The majority of the values were determined using the PDK1 kinase assay III described hereinbefore. The values marked with an asterisk (* or**) were determined using the PDK1 kinase assay II described hereinbefore (one asterisk→incubation for 24 h; two asterisks→incubation for 5 min)
As for `O=C1Nc2cc(/C=C/CNC(=O)c3cncn(Cc4ccc(F)c(F)c4)c3=O)ccc2/C1=C/c1ncc[nH]1` [I-37, 1-(3,4-difluorobenzyl)-N-{(2E)-3-[(3Z)-3-(1H-imidazol-2-ylmethylidene)-2-oxo-2,3-dihydro-1H-indol-6-yl]prop-2-en-1-yl}-6-oxo-1,6-dihydropyrimidine-5-carboxamide], the remaining activity at 10 µM amounted to 16.6%.
Then `Cc1c(C(=O)NCC#Cc2ccc3nc(Nc4ccc(CN(C)C)cc4)ncc3c2)c(=O)n(Cc2ccccc2)n1C` [III-18, 2-benzyl-N-{3-[2-({4-[(dimethylamino)methyl]phenyl}amino)quinazolin-6-yl]prop-2-yn-1-yl}-1,5-dimethyl-3-oxo-2,3-dihydro-1H-pyrazole-4-carboxamide], with 14.7%; and `COc1cc(Nc2ncc3cc(/C=C/CNC(=O)c4cncn(Cc5ccc(F)c(F)c5)c4=O)ccc3n2)ccc1C(=O)NC1CCN(C)CC1`, with 29%; and `Cc1c(C(=O)NCc2ccc(Nc3ncnc4[nH]c(-c5ccccc5)cc34)cc2)c(=O)n(Cc2ccc(F)c(F)c2)n1C` [IV-25, 2-(3,4-difluorobenzyl)-1,5-dimethyl-3-oxo-N-{4-[(6-phenyl-7H-pyrrolo[2,3-d]-pyrimidin-4-yl)amino]benzyl}-2,3-dihydro-1H-pyrazole-4-carboxamide], with 33.5%.
Then `O=C(NCc1ccc(-c2cnc3[nH]ccc3c2)s1)c1cncn(Cc2ccc(F)c(F)c2)c1=O` [IV-41, 1-(3,4-difluorobenzyl)-6-oxo-N-{[5-(1H-pyrrolo[2,3-b]pyridin-5-yl)thiophen-2-yl]methyl}-1,6-dihydropyrimidine-5-carboxamide], with 24.4%; and `CNC(=O)c1ccc(Nc2ncc3cc(/C=C/CNC(=O)c4c(C)n(C)n(Cc5ccc(F)c(F)c5)c4=O)ccc3n2)cc1Cl`, with 18.6%; and `CNc1ncc2cc(/C=C/CNC(=O)c3c(C)n(C)n(Cc4ccc(F)c(F)c4)c3=O)ccc2n1`, with 16.1%.
On to `Cc1c(C(=O)NC/C=C/c2ccc3nc(Nc4ccc(C(=O)NCCCN(C)C)cc4)ncc3c2)c(=O)n(Cc2ccc(F)c(F)c2)n1C`, for which the remaining activity at 10 µM stood at 16.9%.
`Cc1c(C(=O)NCC#Cc2cc(OCCN)c3nc(Nc4ccc(N5CCOCC5)cc4)ncc3c2)c(=O)n(Cc2ccc(F)c(F)c2)n1C`: the remaining activity at 10 µM is 13.8%.
Then `CN1CCC(N(C)c2ccc(Nc3ncc4cc(C#CCNC(=O)c5cc(Cl)nn(Cc6ccc(F)c(F)c6)c5=O)ccc4n3)cc2)CC1` [III-41, 6-chloro-2(3,4-difluorobenzyl)-N-{3-[2-({4-[methyl(1-methylpiperidin-4-yl)amino]phenyl}amino)quinazolin-6-yl]prop-2-yn-1-yl}-3-oxo-2,3-dihydropyridazine-4-carboxamide], with 12.7%; and `Cc1c(C(=O)NCC#Cc2cc(OCCN)c3nc(Nc4ccccc4)ncc3c2)c(=O)n(Cc2ccc(F)c(F)c2)n1C`, with 9.8%; and `Cc1nc(/C=C2\C(=O)Nc3cc(/C=C/CNC(=O)c4cncn(Cc5ccc(F)c(F)c5)c4=O)ccc32)c[nH]1` [I-35, 1-(3,4-difluorobenzyl)-N-[(2E)-3-{(3Z)-3-[(2-methyl-1H-imidazol-4-yl)methylidene]-2-oxo-2,3-dihydro-1H-indol-6-yl}prop-2-en-1-yl]-6-oxo-1,6-dihydropyrimidine-5-carboxamide], with 10.7%.
Then `CN(C)Cc1ccc(Nc2ncc3c(F)c(/C=C/CNC(=O)c4cncn(Cc5ccc(F)c(F)c5)c4=O)ccc3n2)cc1` [IV-33, 1-(3,4-difluorobenzyl)-N-{(2E)-3-[2-({4-[(dimethylamino)methyl]phenyl}amino)-5-fluoroquinazolin-6-yl]prop-2-en-1-yl}-6-oxo-1,6-dihydropyrimidine-5-carboxamide], with 14.9%.
